# Source: US12398107B2, “Fungicidal nitroanilino substituted pyrazoles” (FMC Corporation, priority 2018, dated 2025)
# Columns and labels:
# Assay type in all cases: in vivo
# [1] = tested on: Puccinia recondita f. sp. tritici; experiment: Test B: wheat leaf rust, preventive spray on wheat seedlings; conditions: 100 = 100% disease control, 0 = no control relative to controls; for Test B disease control rating (wheat leaf rust) / pest or weed control at 50 ppm: 50 ppm
# Outline: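 Wheat seedlings got a run-off spray (ppm, acetone/water 50/50, 250 ppm PEG400) and one day later a spore inoculum. After 24 h at 20° C. in saturated air and 7 days at 20° C., disease was scored as % control relative to controls (100 = full control).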
# Botrytis cinerea = experiment: Test E: tomato Botrytis, preventive spray on tomato seedlings; conditions: 100 = 100% disease control, 0 = no control; for Test E disease control rating (tomato Botrytis) / pest or weed control at 50 ppm: 50 ppm
# Outline: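 Preventive test: spore inoculation one day after run-off spraying of compound suspension (3% acetone, acetone/water 50/50, 250 ppm PEG400). Incubation 20 °C saturated humidity for 48 h, followed by 3 days at 24 °C growth chamber; disease control scored visually, 100 = full control.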
# [2] = tested on: Blumeria graminis f. sp. tritici; experiment: Test C: wheat powdery mildew, preventive spray on wheat seedlings; conditions: rated after 8 days, 100 = 100% disease control, 0 = no control; for Test C disease control rating (wheat powdery mildew) / pest or weed control at 50 ppm: 50 ppm
# Outline: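 Wheat seedlings got a run-off spray of test suspension (ppm in acetone/water 50/50, 250 ppm PEG400, acetone 3% of volume), then spore-dust inoculation with wheat powdery mildew one day later. After 8 days' growth-chamber incubation at 20° C, disease control scored visually on a 0–100 scale versus untreated controls.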
# Phakopsora pachyrhizi = experiment: Test D: Asian soybean rust, preventive spray on soybean seedlings; conditions: 100 = 100% disease control, 0 = no control; for Test D disease control rating (Asian soybean rust) / pest or weed control at 50 ppm: 50 ppm
# Outline: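 Soybean seedlings sprayed to run-off with compound suspension (ppm, in 50/50 acetone/water with 250 ppm PEG400), inoculated next day with P. pachyrhizi spores, held 24 h saturated at 22°C then 8 days at 22°C. Visual rating 0-100% disease control relative to controls.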
# Alternaria solani = experiment: Test F: tomato early blight, preventive spray on tomato seedlings; conditions: 100 = 100% disease control, 0 = no control; for Test F disease control rating (tomato early blight) / pest or weed control at 50 ppm: 50 ppm
# Outline: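 Preventive test: one day after seedlings were sprayed to run-off with ppm-level suspensions (acetone/water 50/50, 250 ppm PEG400), A. solani spore inoculation followed. Incubation was 48 h at 27° C in saturated air plus 3 days at 20° C; disease control was scored visually versus controls (100 = full control).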
# Septoria tritici = experiment: Test A: wheat leaf blotch, preventive spray on wheat seedlings; conditions: 100 = 100% disease control, 0 = no control relative to controls; for Test A disease control rating (wheat leaf blotch) / pest or weed control at 50 ppm: 50 ppm
# Outline: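 Preventive test: seedlings sprayed to run-off one day before Septoria tritici spore inoculation, with ppm doses in acetone/water containing 250 ppm PEG400. After 48 h at 24 °C in saturated air and 17 days at 20 °C, plants were scored 0–100 for disease control versus untreated controls.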
# [3] = read-out: Test B disease control rating (wheat leaf rust)
# [4] = Botrytis cinerea, read-out: Test E disease control rating (tomato Botrytis)
# [5] = Blumeria graminis, 192 h, read-out: Test C disease control rating (wheat powdery mildew)
# [6] = Phakopsora pachyrhizi, read-out: Test D disease control rating (Asian soybean rust)
# [7] = Alternaria solani, read-out: Test F disease control rating (tomato early blight)
# [8] = Zymoseptoria tritici, read-out: Test A disease control rating (wheat leaf blotch)
Structure (SMILES),Test B disease control rating (wheat leaf rust) [1] [%],Test E disease control rating (tomato Botrytis) (Botrytis cinerea) [%],Test C disease control rating (wheat powdery mildew) [2] [%],Test D disease control rating (Asian soybean rust) (Phakopsora pachyrhizi) [%],Test F disease control rating (tomato early blight) (Alternaria solani) [%],Test A disease control rating (wheat leaf blotch) (Septoria tritici) [%],"pest or weed control at 10 ppm ([1]; 10 ppm, read-out: Test B disease control rating (wheat leaf rust)) [%]","pest or weed control at 50 ppm [1, 3] [%]","pest or weed control at 10 ppm (Botrytis cinerea; Botrytis cinerea, 10 ppm, read-out: Test E disease control rating (tomato Botrytis)) [%]",pest or weed control at 50 ppm (Botrytis cinerea; [4]) [%],"pest or weed control at 10 ppm ([2]; Blumeria graminis, 192 h, 10 ppm, read-out: Test C disease control rating (wheat powdery mildew)) [%]","pest or weed control at 50 ppm [2, 5] [%]","pest or weed control at 10 ppm (Phakopsora pachyrhizi; Phakopsora pachyrhizi, 10 ppm, read-out: Test D disease control rating (Asian soybean rust)) [%]",pest or weed control at 50 ppm (Phakopsora pachyrhizi; [6]) [%],"pest or weed control at 10 ppm (Alternaria solani; Alternaria solani, 10 ppm, read-out: Test F disease control rating (tomato early blight)) [%]",pest or weed control at 50 ppm (Alternaria solani; [7]) [%],"pest or weed control at 10 ppm (Septoria tritici; Zymoseptoria tritici, 10 ppm, read-out: Test A disease control rating (wheat leaf blotch)) [%]",pest or weed control at 50 ppm (Septoria tritici; [8]) [%]
Cc1cc(F)c(Nc2c(-c3ccc(F)cc3F)c(C)nn2C)c([N+](=O)[O-])c1 [Compound 178],100,100,99,97,100,100,–,–,–,–,–,–,–,–,–,–,–,–
Cc1nn(C)c(Nc2cc(Cl)ccc2[N+](=O)[O-])c1-c1ccc(F)cc1Cl [Compound 130],86,85,20,0,0,85,–,–,–,–,–,–,–,–,–,–,–,–
Cc1nn(C)c(Nc2c(Cl)cc(F)cc2[N+](=O)[O-])c1-c1ccc(Cl)cc1F [Compound 176],97,9,0,0,0,100,–,–,–,–,–,–,–,–,–,–,–,–
Cc1cc(Cl)c(Nc2c(-c3ccc(F)cc3Br)c(C)nn2C)c([N+](=O)[O-])c1 [Compound 181],100,99,99,78,99,100,–,–,–,–,–,–,–,–,–,–,–,–
Cc1cc(Cl)cc([N+](=O)[O-])c1Nc1c(-c2ccc(F)cc2Cl)c(C)nn1C [Compound 33],100,99,99,92,85,100,–,–,–,–,–,–,–,–,–,–,–,–
Cc1nn(C)c(Nc2c(Cl)cc(Cl)cc2[N+](=O)[O-])c1-c1ccc(F)cc1Cl [Compound 59],100,99,99,96,92,100,–,–,–,–,–,–,–,–,–,–,–,–
Cc1nn(C)c(Nc2c(Br)cccc2[N+](=O)[O-])c1-c1ccc(F)cc1Cl [Compound 110],98,99,56,73,0,100,–,–,–,–,–,–,–,–,–,–,–,–
Cc1nn(C)c(Nc2ccc(Cl)cc2[N+](=O)[O-])c1-c1ccc(F)cc1Cl [Compound 92],96,100,89,0,79,100,–,–,–,–,–,–,–,–,–,–,–,–
Cc1nn(C)c(Nc2c(Cl)cccc2[N+](=O)[O-])c1-c1ccc(F)cc1Cl [Compound 108],100,100,97,86,77,100,–,–,–,–,–,–,–,–,–,–,–,–
COc1ccc(Nc2c(-c3c(F)cc(F)cc3F)c(C)nn2C)c([N+](=O)[O-])c1 [Compound 159],100,99,100,13,99,100,–,–,–,–,–,–,–,–,–,–,–,–
Cc1cc(Cl)c(Nc2c(-c3ccc(Cl)cc3Cl)c(C)nn2C)c([N+](=O)[O-])c1 [Compound 145],92,85,52,0,24,98,–,–,–,–,–,–,–,–,–,–,–,–
"Cc1nn(C)c(Nc2c(F)cccc2[N+](=O)[O-])c1-c1ccc(F)cc1Cl [Compound 112, 4-(2-chloro-4-fluorophenyl)-N-(2-fluoro-6-nitrophenyl)-1,3-dimethyl-1H-pyrazol-5-amine]",–,–,–,–,–,–,100,100,100,100,98,100,52,99,98,100,72,88
Cc1ccc(Nc2c(-c3c(F)cccc3F)c(C)nn2C)c([N+](=O)[O-])c1 [Compound 105],74,73,86,0,0,99,–,–,–,–,–,–,–,–,–,–,–,–
CCc1nn(C)c(Nc2c(F)cccc2[N+](=O)[O-])c1-c1c(F)cc(Cl)cc1F [Compound 170],99,100,99,0,99,100,–,–,–,–,–,–,–,–,–,–,–,–
"Cc1nn(C)c(Nc2c(F)cc(Br)cc2[N+](=O)[O-])c1-c1ccc(F)cc1Cl [Compound 61, N-(4-bromo-2-fluoro-6-nitrophenyl)-4-(2-chloro-4-fluorophenyl)-1,3-dimethyl-1H-pyrazol-5-amine]",–,–,–,–,–,–,–,100,–,99,–,99,–,84,–,99,–,100
